Results as given in ChEMBL document CHEMBL1152721, “A simple in vitro assay for assessing the reactivity of nitrile containing compounds” (Bioorg Med Chem Lett, 2009).

Assays:
[1] = Binding affinity to glutathione assessed as typical half life at 1.4 nM
[2] = Binding affinity to cysteine assessed as typical half life at 1.4 nM
[3] = Binding affinity to glutathione assessed as typical half life
[4] = Binding affinity to cysteine assessed as typical half life

Row | T1/2 [1] [h] | T1/2 [2] [h] | T1/2 [3] [h] | T1/2 [4] [h] | SMILES
1 | 97 | < 10 | – | – | CCCN1CCN(c2ccc(C(=O)NC3(C(=O)NCC#N)CCCCC3)cc2)CC1
2 | – | – | 7.3 | – | COCCN1CCC(Cc2ccc(C(=O)NCc3cnc(C#N)nc3NCC(C)(C)C)cc2)CC1
3 | – | – | 40 | 2 | COC(=O)C1=C(C#N)NC(C)=C(C(=O)OC(C)C)C1c1cccc([N+](=O)[O-])c1 (stereo not given)
